In ChEMBL document CHEMBL3576802 (J Med Chem, 2015):
One block for each compound: values may come before it. Where a SMILES comes first, the peptide text is derived from it. Bridges are numbered along the chain shown (N, C = ends). [ ]: non-standard residue; d: D form. Bip = N[C@@H](Cc1ccc(-c2ccccc2)cc1)C(=O)O; 1Nal = N[C@@H](Cc1cccc2ccccc12)C(=O)O

How the values were obtained:
Assay type in all cases: cell-based; call rule not given here
Melanocortin receptor 4 = Melanocortin receptor 4 (Mus musculus, UniProt P56450); experiment: Displacement of MTII from mouse MC4R expressed in HEK293 cells; details: for Kb: read-out: pA2 (converted)
Melanocortin receptor 4, sequence (P56450 whole entry): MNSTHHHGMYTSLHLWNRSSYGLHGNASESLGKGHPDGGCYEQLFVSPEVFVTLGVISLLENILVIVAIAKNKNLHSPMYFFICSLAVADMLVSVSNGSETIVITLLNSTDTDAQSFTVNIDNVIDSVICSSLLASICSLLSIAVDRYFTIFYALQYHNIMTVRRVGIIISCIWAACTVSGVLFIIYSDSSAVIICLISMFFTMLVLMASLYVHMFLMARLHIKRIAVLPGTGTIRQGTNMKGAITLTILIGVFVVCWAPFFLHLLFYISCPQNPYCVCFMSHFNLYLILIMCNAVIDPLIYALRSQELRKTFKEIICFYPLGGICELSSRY

Melanocortin receptor 3 = Melanocortin receptor 3 (Mus musculus, UniProt P33033); experiment: Displacement of MTII from mouse MC3R expressed in HEK293 cells; details: for Kb: read-out: pA2 (converted)
Melanocortin receptor 3, sequence (P33033 whole entry): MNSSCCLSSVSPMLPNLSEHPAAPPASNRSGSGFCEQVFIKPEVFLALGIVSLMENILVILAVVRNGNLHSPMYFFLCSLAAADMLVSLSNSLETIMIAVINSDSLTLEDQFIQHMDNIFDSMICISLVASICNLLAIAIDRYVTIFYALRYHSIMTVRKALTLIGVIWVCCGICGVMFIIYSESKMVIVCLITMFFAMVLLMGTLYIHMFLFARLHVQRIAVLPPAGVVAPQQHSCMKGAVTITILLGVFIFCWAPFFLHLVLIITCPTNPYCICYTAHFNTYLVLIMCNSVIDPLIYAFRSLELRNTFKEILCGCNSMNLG

[1] = target: Melanocyte-stimulating hormone receptor (Mus musculus, UniProt Q01727); experiment: Agonist activity at mouse MC1R expressed in HEK293 cells by cAMP functional bioassay
Melanocyte-stimulating hormone receptor, sequence (Q01727 whole entry): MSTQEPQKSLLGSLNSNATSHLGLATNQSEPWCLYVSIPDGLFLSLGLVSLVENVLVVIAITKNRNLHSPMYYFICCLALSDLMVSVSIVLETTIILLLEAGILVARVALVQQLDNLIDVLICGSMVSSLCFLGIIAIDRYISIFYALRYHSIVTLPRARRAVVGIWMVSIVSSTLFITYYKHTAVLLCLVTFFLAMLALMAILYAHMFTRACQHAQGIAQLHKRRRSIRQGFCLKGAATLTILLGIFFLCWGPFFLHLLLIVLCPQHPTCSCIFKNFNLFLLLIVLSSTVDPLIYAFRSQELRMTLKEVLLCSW

[2] = target: Melanocyte-stimulating hormone receptor (Mus musculus) (UniProt Q01727); experiment: Agonist activity at mouse MC1R expressed in HEK293 cells at 100 uM by cAMP functional bioassay
Melanocyte-stimulating hormone receptor (Mus musculus), sequence (Q01727 whole entry, looked up): as the sequence (Q01727 whole entry) above

SMILES: CC(=O)N[C@H](C(=O)N[C@H]1CSSC[C@@H](C(=O)N[C@@H](CCCNC(=N)N)C(N)=O)NC(=O)[C@H](Cc2ccc(O)cc2)NC(=O)[C@@H]2CSSC[C@H](NC(=O)[C@H](Cc3ccc(O)cc3)NC1=O)C(=O)N[C@@H](CCCNC(=N)N)C(=O)N[C@@H](Cc1ccccc1)C(=O)N[C@@H](Cc1ccccc1)C(=O)N[C@@H](CC(N)=O)C(=O)N[C@@H](C)C(=O)N[C@@H](Cc1ccccc1)C(=O)N2)[C@@H](C)O
Kb (Melanocortin receptor 4): 0.0631 µM

SMILES: C[C@@H]1NC(=O)[C@H](CC(N)=O)NC(=O)[C@H](Cc2ccccc2)NC(=O)C(Cc2ccc3ccccc3c2)NC(=O)[C@H](CCCNC(=N)N)NC(=O)[C@@H]2CCCN2C(=O)[C@H]2CCCN2C(=O)[C@H](Cc2ccccc2)NC1=O (stereo not given in full)
Ki (Melanocortin receptor 3): 1 µM
Kb (Melanocortin receptor 3): 1 µM

SMILES: C[C@@H]1NC(=O)[C@H](CC(N)=O)NC(=O)[C@H](Cc2ccccc2)NC(=O)[C@H](CCc2ccccc2)NC(=O)[C@H](CCCNC(=N)N)NC(=O)[C@@H]2CCCN2C(=O)[C@H]2CCCN2C(=O)[C@H](Cc2ccccc2)NC1=O
EC50 ([1]; hek293): 1.5 µM
Ki (Melanocortin receptor 4; hek293): 0.1 µM
pA2 (Melanocortin receptor 4; hek293): 7

SMILES: C[C@@H]1NC(=O)[C@H](CC(N)=O)NC(=O)[C@H](Cc2cccc3ccccc23)NC(=O)[C@H](Cc2ccccc2)NC(=O)[C@H](CCCNC(=N)N)NC(=O)[C@@H]2CCCN2C(=O)[C@H]2CCCN2C(=O)[C@H](Cc2ccccc2)NC1=O
EC50 ([1]; hek293): 12.7 µM
Ki (Melanocortin receptor 4; hek293): 0.016 µM
pA2 (Melanocortin receptor 4; hek293): 7.8

SMILES: CC(=O)N[C@H](C(=O)N[C@H]1CSSC[C@@H](C(=O)N[C@@H](CCCNC(=N)N)C(N)=O)NC(=O)[C@H](Cc2ccc(O)cc2)NC(=O)[C@H]2CSSC[C@H](NC(=O)[C@H](Cc3ccc(O)cc3)NC1=O)C(=O)N[C@@H](CCCNC(=N)N)C(=O)N[C@@H](Cc1ccccc1)C(=O)N[C@@H](Cc1ccccc1)C(=O)N[C@@H](CC(N)=O)C(=O)N[C@@H](C)C(=O)N[C@@H](Cc1ccccc1)C(=O)N2)[C@@H](C)O
Kb (Melanocortin receptor 3): 0.631 µM

SMILES: C[C@@H]1NC(=O)[C@H](CC(N)=O)NC(=O)[C@H](c2ccccc2)NC(=O)[C@H](Cc2ccccc2)NC(=O)[C@H](CCCNC(=N)N)NC(=O)[C@@H]2CCCN2C(=O)[C@H]2CCCN2C(=O)[C@H](Cc2ccccc2)NC1=O
EC50 ([1]; hek293): 21 µM
Ki (Melanocortin receptor 4; hek293): 1.3 µM
pA2 (Melanocortin receptor 4; hek293): 5.9

SMILES: C[C@@H]1NC(=O)[C@H](CC(N)=O)NC(=O)[C@H](Cc2ccc(-c3ccccc3)cc2)NC(=O)[C@H](Cc2ccccc2)NC(=O)[C@H](CCCNC(=N)N)NC(=O)[C@@H]2CCCN2C(=O)[C@H]2CCCN2C(=O)[C@H](Cc2ccccc2)NC1=O
EC50 [1]: 0.5 µM
Ki (Melanocortin receptor 4): 0.16 µM
Kb (Melanocortin receptor 4): 0.158 µM

SMILES: C[C@@H]1NC(=O)[C@H](CCCCN)NC(=O)[C@H](Cc2ccccc2)NC(=O)[C@H](Cc2ccccc2)NC(=O)[C@H](CCCNC(=N)N)NC(=O)[C@@H]2CCCN2C(=O)[C@H]2CCCN2C(=O)[C@H](Cc2ccccc2)NC1=O
Ki (Melanocortin receptor 3): 0.1 µM
Kb (Melanocortin receptor 3): 0.1 µM
Ki (Melanocortin receptor 4): 0.005 µM
Kb (Melanocortin receptor 4): 0.00501 µM

SMILES: C[C@@H]1NC(=O)[C@H](CC(N)=O)NC(=O)[C@H](Cc2ccc3ccccc3c2)NC(=O)[C@H](Cc2ccccc2)NC(=O)[C@H](CCCNC(=N)N)NC(=O)[C@@H]2CCCN2C(=O)[C@H]2CCCN2C(=O)[C@H](Cc2ccccc2)NC1=O
EC50 ([1]; hek293): 19.6 µM
Ki (Melanocortin receptor 4; hek293): 0.063 µM
pA2 (Melanocortin receptor 4; hek293): 7.2

EC50 [1]: 17.6 µM
SMILES: C[C@@H]1NC(=O)[C@H](Cc2ccccc2)NC(=O)[C@H](C)NC(=O)[C@H](CC(N)=O)NC(=O)[C@H](Cc2ccccc2)NC(=O)[C@H](Cc2ccccc2)NC(=O)[C@H](CCCNC(=N)N)NC(=O)[C@H](C)NC(=O)[C@H](Cc2ccc(O)cc2)NC(=O)[C@@H]2CCCN2C(=O)[C@H]2CCCN2C(=O)[C@H](Cc2ccc(O)cc2)NC1=O

SMILES: C[C@@H]1NC(=O)C(CN)NC(=O)[C@H](Cc2ccccc2)NC(=O)[C@H](Cc2ccccc2)NC(=O)[C@H](CCCNC(=N)N)NC(=O)[C@@H]2CCCN2C(=O)[C@H]2CCCN2C(=O)[C@H](Cc2ccccc2)NC1=O (stereo not given in full)
Activity [2]: 75%
Ki (Melanocortin receptor 3): 0.13 µM
Kb (Melanocortin receptor 3): 0.126 µM

SMILES: C[C@@H]1NC(=O)[C@H](CC(N)=O)NC(=O)[C@H](Cc2ccccc2)NC(=O)[C@H](Cc2ccc3ccccc3c2)NC(=O)[C@H](CCCNC(=N)N)NC(=O)[C@@H]2CCCN2C(=O)[C@H]2CCCN2C(=O)[C@H](Cc2ccccc2)NC1=O
EC50 ([1]; hek293): 8.8 µM
Ki (Melanocortin receptor 4; hek293): 0.1 µM
pA2 (Melanocortin receptor 4; hek293): 7

SMILES: C[C@@H]1NC(=O)CNC(=O)[C@H](Cc2ccccc2)NC(=O)[C@H](Cc2ccccc2)NC(=O)[C@H](CCCNC(=N)N)NC(=O)[C@@H]2CCCN2C(=O)[C@H]2CCCN2C(=O)[C@H](Cc2ccccc2)NC1=O
Activity [2]: 50%
Ki (Melanocortin receptor 3): 0.025 µM
Kb (Melanocortin receptor 3): 0.0251 µM
Ki (Melanocortin receptor 4): 0.004 µM
Kb (Melanocortin receptor 4): 0.00398 µM

SMILES: C[C@@H]1NC(=O)C(CCCN)NC(=O)[C@H](Cc2ccccc2)NC(=O)[C@H](Cc2ccccc2)NC(=O)[C@H](CCCNC(=N)N)NC(=O)[C@@H]2CCCN2C(=O)[C@H]2CCCN2C(=O)[C@H](Cc2ccccc2)NC1=O (stereo not given in full)
Activity [2]: 30%
Ki (Melanocortin receptor 3): 0.16 µM
Kb (Melanocortin receptor 3): 0.158 µM

SMILES: C[C@@H]1NC(=O)[C@H](CC(N)=O)NC(=O)[C@H](Cc2ccccc2)NC(=O)[C@H](Cc2ccccc2)NC(=O)[C@H](CCCNC(=N)N)NC(=O)[C@H]([C@@H](C)O)NC(=O)[C@H](Cc2ccc(O)cc2)NC(=O)[C@@H]2CCCN2C(=O)[C@H]2CCCN2C(=O)[C@H](Cc2ccc(O)cc2)NC(=O)[C@H]([C@@H](C)O)NC(=O)[C@H](Cc2ccccc2)NC1=O (cyclo(YTRFFNAFTY[dP]P))
EC50 [1]: 11.6 µM
Kb (Melanocortin receptor 3): 1.26 µM
Kb (Melanocortin receptor 4): 0.158 µM

SMILES: C[C@@H]1NC(=O)[C@H](CC(N)=O)NC(=O)[C@H](Cc2ccccc2)NC(=O)[C@H](Cc2ccc(-c3ccccc3)cc2)NC(=O)[C@H](CCCNC(=N)N)NC(=O)[C@@H]2CCCN2C(=O)[C@H]2CCCN2C(=O)[C@H](Cc2ccccc2)NC1=O (cyclo(R[Bip]FNAF[dP]P))
EC50 [1]: 0.8 µM
Ki (Melanocortin receptor 3): 0.63 µM
Kb (Melanocortin receptor 3): 0.631 µM
Ki (Melanocortin receptor 4): 0.16 µM
Kb (Melanocortin receptor 4): 0.158 µM

SMILES: C[C@@H]1NC(=O)[C@H](CC(N)=O)NC(=O)[C@H](Cc2ccccc2)NC(=O)[C@H](Cc2cccc3ccccc23)NC(=O)[C@H](CCCNC(=N)N)NC(=O)[C@@H]2CCCN2C(=O)[C@H]2CCCN2C(=O)[C@H](Cc2ccccc2)NC1=O (cyclo(R[1Nal]FNAF[dP]P))
EC50 ([1]; hek293): 2.5 µM
Ki (Melanocortin receptor 4; hek293): 0.016 µM
pA2 (Melanocortin receptor 4; hek293): 7.8

IC50 (Melanocortin receptor 4; hek293): Not Active
SMILES: CC(=O)N[C@H]1CSSC[C@@H](C(N)=O)NC(=O)[C@H](Cc2ccccc2)NC(=O)[C@H](C)NC(=O)[C@H](CC(N)=O)NC(=O)[C@H](Cc2ccccc2)NC(=O)[C@H](Cc2ccccc2)NC(=O)[C@H](CCCNC(=N)N)NC1=O

SMILES: C[C@@H]1NC(=O)[C@H](CC(N)=O)NC(=O)[C@H](Cc2ccccc2)NC(=O)[C@H](c2ccccc2)NC(=O)[C@H](CCCNC(=N)N)NC(=O)[C@@H]2CCCN2C(=O)[C@H]2CCCN2C(=O)[C@H](Cc2ccccc2)NC1=O
EC50 ([1]; hek293): 13.6 µM

SMILES: C[C@@H]1NC(=O)[C@H](CC(N)=O)NC(=O)[C@@H]2Cc3ccccc3CN2C(=O)[C@H](Cc2ccccc2)NC(=O)[C@H](CCCNC(=N)N)NC(=O)[C@@H]2CCCN2C(=O)[C@H]2CCCN2C(=O)[C@H](Cc2ccccc2)NC1=O
EC50 ([1]; hek293): 3.9 µM

SMILES: C[C@@H]1NC(=O)[C@H](CC(N)=O)NC(=O)[C@H](CCc2ccccc2)NC(=O)[C@H](Cc2ccccc2)NC(=O)[C@H](CCCNC(=N)N)NC(=O)[C@@H]2CCCN2C(=O)[C@H]2CCCN2C(=O)[C@H](Cc2ccccc2)NC1=O
EC50 ([1]; hek293): 20.3 µM

Kb (Melanocortin receptor 3): 0.794 µM
SMILES: C[C@H](NC(=O)[C@H](Cc1ccc(O)cc1)NC(=O)[C@@H]1CSSC[C@H](NC(=O)[C@H](Cc2ccc(O)cc2)NC(=O)[C@H](C)NC(=O)[C@@H](N)[C@@H](C)O)C(=O)N[C@@H](CCCNC(=N)N)C(=O)N[C@@H](Cc2ccccc2)C(=O)N[C@@H](Cc2ccccc2)C(=O)N[C@@H](CC(N)=O)C(=O)N[C@@H](C)C(=O)N[C@@H](Cc2ccccc2)C(=O)N1)C(=O)N[C@@H](CCCNC(=N)N)C(N)=O (H-TAYCRFFNAFCYAR-NH2; disulfide 4-11)

EC50 [1]: 4.5 µM
SMILES: C[C@@H]1NC(=O)[C@H](CC(N)=O)NC(=O)[C@H](Cc2ccccc2)NC(=O)[C@H](Cc2ccccc2)NC(=O)[C@H](CCCNC(=N)N)NC(=O)[C@@H]2CCCN2C(=O)[C@H]2CCCN2C(=O)[C@H](Cc2ccccc2)NC1=O

SMILES: C[C@@H]1NC(=O)[C@H](CC(N)=O)NC(=O)C(Cc2cccc3ccccc23)NC(=O)[C@H](Cc2ccccc2)NC(=O)[C@H](CCCNC(=N)N)NC(=O)[C@@H]2CCCN2C(=O)[C@H]2CCCN2C(=O)[C@H](Cc2ccccc2)NC1=O (stereo not given in full)
Ki (Melanocortin receptor 3): 2.5 µM
Kb (Melanocortin receptor 3): 2.51 µM

SMILES: C[C@@H]1NC(=O)C(CCN)NC(=O)[C@H](Cc2ccccc2)NC(=O)[C@H](Cc2ccccc2)NC(=O)[C@H](CCCNC(=N)N)NC(=O)[C@@H]2CCCN2C(=O)[C@H]2CCCN2C(=O)[C@H](Cc2ccccc2)NC1=O (stereo not given in full)
Activity [2]: 50%
Ki (Melanocortin receptor 3): 0.1 µM
Kb (Melanocortin receptor 3): 0.1 µM
